Bounds are passed on as bounds.

One may read the IC50 as the point on the concentration scale where inhibition reaches its midpoint. A high value points to lower potency.

This assay relates to U87MG cells. Kind of assay: Cytotoxicity assay (cell viability, CellTiter 96 Aqueous MTS). The note with it: Homo sapiens, U-87 MG, 72 h, 72 hours incubation, starting concentration 50 uM, 9 point half log dilution, average where tested repeatedly. Type of assay: cell-based. As for the experimental part: Example 3: Cytotoxicity Assay
U87MG cells were plated at a density of 7×10^3 cells/well and allowed to seed overnight. Cells were then treated with compounds from Table 1 or CMPD-1 (4-(2′-fluoro-[1,1′-biphenyl]-4-yl)-N-(4-hydroxyphenyl)butanamide as a positive control) were added to cells at a starting concentration of 50 uM, with a 9 point half log dilution, and incubated for 72 hours prior to viability determination. IC50 values were calculated from cell viability as measured using the CellTiter 96® Aqueous MTS reagent from Promega©, and the results are shown in Table 2.
`Cn1cnc(C(=O)NCCCc2ccc(-c3ccccc3F)cc2)c1` [Compound 88, N-(3-(2′-fluoro-[1,1′-biphenyl]-4-yl)propyl)-1-methyl-1H-imidazole-4-carboxamide] came in with an IC50 of over 5 µM.

Turning to `Cc1cc(C(=O)NCCCc2ccc(-c3ccccc3F)cc2)n(C)n1` [Compound 89, N-(3-(2′-fluoro-[1,1′-biphenyl]-4-yl)propyl)-1,3-dimethyl-1H-pyrazole-5-carboxamide], the IC50 is under 0.5 µM.

Compound `Cc1cc(C(=O)NCCCc2ccc(-c3ccccc3F)cc2)no1` [Compound 90, N-(3-(2′-fluoro-[1,1′-biphenyl]-4-yl)propyl)-5-methylisoxazole-3-carboxamide] showed an IC50 of under 0.5 µM.

Compound `O=C(NCCCc1ccc(-c2ccccc2F)cc1)c1ccc2c(c1)OCCO2` [Compound 91, N-(3-(2′-fluoro-[1,1′-biphenyl]-4-yl)propyl)-2,3-dihydrobenzo[b] [1,4]dioxine-6-carboxamide] showed an IC50 of over 5 µM.

`Cn1cnc2cc(C(=O)NCCCc3ccc(-c4ccccc4F)cc3)cnc21` [Compound 95, N-(3-(2′-fluoro-[1,1′-biphenyl]-4-yl)propyl)-3-methyl-3H-imidazo[4,5-b]pyridine-6-carboxamide] displayed an IC50 of under 0.5 µM.

Take `Cc1ccc(C(=O)NCCCc2ccc(-c3ccccc3F)cc2)c(C)n1` [Compound 99, N-(3-(2′-fluoro-[1,1′-biphenyl]-4-yl)propyl)-2,6-dimethylnicotinamide]: the IC50 is 1 to 5 µM.

As for `Cc1nc2cc(C(=O)NCCCc3ccc(-c4ccccc4F)cc3)ccc2[nH]1` [Compound 100, N-(3-(2′-fluoro-[1,1′-biphenyl]-4-yl)propyl)-2-methyl-1H-benzo[d]imidazole-5-carboxamide], the IC50 is over 5 µM.

`O=C(Cc1noc2ccccc12)NCCCc1ccc(-c2ccccc2F)cc1` [Compound 102, 2-(benzo[d]isoxazol-3-yl)-N-(3-(2′-fluoro-[1,1′-biphenyl]-4-yl)propyl)acetamide] came in with an IC50 of over 5 µM.

The compound `Nc1ccc(C(=O)NCCCc2ccc(-c3ccccc3F)cc2)cn1` [Compound 105, 6-amino-N-(3-(2′-fluoro-[1,1′-biphenyl]-4-yl)propyl)nicotinamide] came in with an IC50 of under 0.5 µM.

For the compound `Cn1nccc1C(=O)NCCCc1ccc(-c2ccccc2F)cc1` [Compound 106, N-(3-(2′-fluoro-[1,1′-biphenyl]-4-yl)propyl)-1-methyl-1H-pyrazole-5-carboxamide], the IC50 lay in the range of 0.501 to 1 µM.

`O=C(NCCCc1ccc(-c2ccccc2F)cc1)C(F)(F)c1ccccc1` [Compound 108, 2,2-difluoro-N-(3-(2′-fluoro-[1,1′-biphenyl]-4-yl)propyl)-2-phenylacetamide] came in with an IC50 of under 0.5 µM.

`CCn1nc(C)cc1C(=O)NCCCc1ccc(-c2ccccc2F)cc1` [Compound 109, 1-ethyl-N-(3-(2′-fluoro-[1,1′-biphenyl]-4-yl)propyl)-3-methyl-1H-pyrazole-5-carboxamide] registered an IC50 of 0.501 to 1 µM.

Compound `COc1ccc(CC(=O)NCCCc2ccc(-c3ccccc3F)cc2)cc1OC` [Compound 110, 2-(3,4-dimethoxyphenyl)-N-(3-(2′-fluoro-[1,1′-biphenyl]-4-yl)propyl)acetamide] had an IC50 of over 5 µM.

For the compound `O=C(NCCCc1ccc(-c2ccccc2F)cc1)c1ccno1` [Compound 111, N-(3-(2′-fluoro-[1,1′-biphenyl]-4-yl)propyl)isoxazole-5-carboxamide], the IC50 is over 5 µM.

The compound `CCOc1ccc(CC(=O)NCCCc2ccc(-c3ccccc3F)cc2)cc1` [Compound 112, 2-(4-ethoxyphenyl)-N-(3-(2′-fluoro-[1,1′-biphenyl]-4-yl)propyl)acetamide] returned an IC50 of 1 to 5 µM.

`O=C(NCCCc1ccc(-c2ccccc2F)cc1)c1cc[nH]n1` [Compound 113, N-(3-(2′-fluoro-[1,1′-biphenyl]-4-yl)propyl)-1H-pyrazole-3-carboxamide] returned an IC50 of over 5 µM.

The compound `COc1ccc(CC(=O)NCCCc2ccc(-c3ccccc3F)cc2)c(OC)c1` [Compound 114, 2-(2,4-dimethoxyphenyl)-N-(3-(2′-fluoro-[1,1′-biphenyl]-4-yl)propyl)acetamide] returned an IC50 of over 5 µM.

In the case of `O=C(NCCCc1ccc(-c2ccccc2F)cc1)c1c[nH]c2ccccc12` [Compound 117, N-(3-(2′-fluoro-[1,1′-biphenyl]-4-yl)propyl)-1H-indole-3-carboxamide], the IC50 was over 5 µM.

As to `O=C(NCCCc1ccc(-c2ccccc2F)cc1)c1cc[nH]c1` [Compound 118, N-(3-(2′-fluoro-[1,1′-biphenyl]-4-yl)propyl)-1H-pyrrole-3-carboxamide], the IC50 was over 5 µM.

Regarding `O=C(Cc1ccc(OC(F)(F)F)cc1)NCCCc1ccc(-c2ccccc2F)cc1` [Compound 120, N-(3-(2′-fluoro-[1,1′-biphenyl]-4-yl)propyl)-2-(4-(trifluoromethoxy)phenyl)acetamide], the IC50 lay in the range of 0.501 to 1 µM.

`CC(=O)Nc1ccc(C(=O)NCCCc2ccc(-c3ccccc3F)cc2)cn1` [Compound 121, 6-acetamido-N-(3-(2′-fluoro-[1,1′-biphenyl]-4-yl)propyl)nicotinamide] had a concentration for half-maximal inhibition (IC50) of 1 to 5 µM.

`O=C(NCCCc1ccc(-c2ccccc2F)cc1)c1ccc2nccnc2c1` [Compound 123, N-(3-(2′-fluoro-[1,1′-biphenyl]-4-yl)propyl)quinoxaline-6-carboxamide] displayed an IC50 of over 5 µM.

Take `O=C(Cn1ccnc1)NCCCc1ccc(-c2ccccc2F)cc1` [Compound 124, N-(3-(2′-fluoro-[1,1′-biphenyl]-4-yl)propyl)-2-(1H-imidazol-1-yl)acetamide]: the IC50 was over 5 µM.

The compound `Cc1cc(C(=O)NCCCc2ccc(-c3ccccc3F)cc2)nn1C` [Compound 125, N-(3-(2′-fluoro-[1,1′-biphenyl]-4-yl)propyl)-1,5-dimethyl-1H-pyrazole-3-carboxamide] showed an IC50 of over 5 µM.

Compound `COc1ccc(CC(=O)NCCCc2ccc(-c3ccccc3F)cc2)cc1F` [Compound 126, 2-(3-fluoro-4-methoxyphenyl)-N-(3-(2′-fluoro-[1,1′-biphenyl]-4-yl)propyl)acetamide] gave an IC50 of 1 to 5 µM.

Regarding `Cc1cc(C(=O)NCCCc2ccc(-c3ccccc3F)cc2)cc(C)c1O` [Compound 127, N-(3-(2′-fluoro-[1,1′-biphenyl]-4-yl)propyl)-4-hydroxy-3,5-dimethylbenzamide], the half-inhibitory concentration (IC50) was over 5 µM.

`Cc1cc(C(=O)NCCCc2ccc(-c3ccccc3F)cc2)on1` [Compound 128, N-(3-(2′-fluoro-[1,1′-biphenyl]-4-yl)propyl)-3-methylisoxazole-5-carboxamide]: the IC50 was in the range of 0.501 to 1 µM.

For the compound `Cn1cncc1C(=O)NCCCc1ccc(-c2ccccc2F)cc1` [Compound 130, N-(3-(2′-fluoro-[1,1′-biphenyl]-4-yl)propyl)-1-methyl-1H-imidazole-5-carboxamide], the IC50 was over 5 µM.

As for `O=C(NCCCc1ccc(-c2ccccc2F)cc1)c1cnco1` [Compound 131, N-(3-(2′-fluoro-[1,1′-biphenyl]-4-yl)propyl)oxazole-5-carboxamide], the IC50 was over 5 µM.

As for `Cc1cnc(C(=O)NCCCc2ccc(-c3ccccc3F)cc2)s1` [Compound 132, N-(3-(2′-fluoro-[1,1′-biphenyl]-4-yl)propyl)-5-methylthiazole-2-carboxamide], the IC50 was over 5 µM.

`Cc1nn(C)cc1C(=O)NCCCc1ccc(-c2ccccc2F)cc1` [Compound 133, N-(3-(2′-fluoro-[1,1′-biphenyl]-4-yl)propyl)-1,3-dimethyl-1H-pyrazole-4-carboxamide] registered an IC50 of over 5 µM.

Compound `O=C(NCCCc1ccc(-c2ccccc2F)cc1)c1ccc[nH]1` [Compound 134, N-(3-(2′-fluoro-[1,1′-biphenyl]-4-yl)propyl)-1H-pyrrole-2-carboxamide] had an IC50 of 1 to 5 µM.

In turn, `O=C(NCCCc1ccc(-c2ccccc2F)cc1)c1cnc2ccccn12` [Compound 137, N-(3-(2′-fluoro-[1,1′-biphenyl]-4-yl)propyl)imidazo[1,2-a]pyridine-3-carboxamide] displayed an IC50 of 1 to 5 µM.

For `Cc1cc(C(=O)NCCCc2ccc(-c3ccccc3F)cc2)[nH]n1` [Compound 139, N-(3-(2′-fluoro-[1,1′-biphenyl]-4-yl)propyl)-3-methyl-1H-pyrazole-5-carboxamide], the IC50 lay in the range of 0.501 to 1 µM.

The compound `Cc1ccc(CC(=O)NCCCc2ccc(-c3ccccc3F)cc2)cc1` [Compound 140, N-(3-(2′-fluoro-[1,1′-biphenyl]-4-yl)propyl)-2-(p-tolyl)acetamide] returned an IC50 of under 0.5 µM.

`Cc1nc(C(=O)NCCCc2ccc(-c3ccccc3F)cc2)cs1` [Compound 141, N-(3-(2′-fluoro-[1,1′-biphenyl]-4-yl)propyl)-2-methylthiazole-4-carboxamide]: the IC50 is over 5 µM.

On to `CC(C)c1cc(C(=O)NCCCc2ccc(-c3ccccc3F)cc2)n(C)n1` [Compound 142, N-(3-(2′-fluoro-[1,1′-biphenyl]-4-yl)propyl)-3-isopropyl-1-methyl-1H-pyrazole-5-carboxamide], for which the IC50 is over 5 µM.

Turning to `Cn1nc2ccccc2c1C(=O)NCCCc1ccc(-c2ccccc2F)cc1` [Compound 143, N-(3-(2′-fluoro-[1,1′-biphenyl]-4-yl)propyl)-2-methyl-2H-indazole-3-carboxamide], the IC50 was over 5 µM.

Regarding `Cc1noc(C)c1C(=O)NCCCc1ccc(-c2ccccc2F)cc1` [Compound 144, N-(3-(2′-fluoro-[1,1′-biphenyl]-4-yl)propyl)-3,5-dimethylisoxazole-4-carboxamide], the half-inhibitory concentration (IC50) was over 5 µM.

Turning to `Cc1cnoc1C(=O)NCCCc1ccc(-c2ccccc2F)cc1` [Compound 145, N-(3-(2′-fluoro-[1,1′-biphenyl]-4-yl)propyl)-4-methylisoxazole-5-carboxamide], the IC50 is over 5 µM.

For the compound `Cn1cc(C(=O)NCCCc2ccc(-c3ccccc3F)cc2)cn1` [Compound 146, N-(3-(2′-fluoro-[1,1′-biphenyl]-4-yl)propyl)-1-methyl-1H-pyrazole-4-carboxamide], the IC50 lay in the range of 1 to 5 µM.

Source of the values: US12247010B2, “Tubulin inhibitors” (LIN BIOSCIENCE PTY LTD., priority 2017, dated 2025).
